Measured values reported in the supplement of paper PMC11061612.

Assays:
[1] = test system: CAL-62 (Thyroid Gland Carcinoma); test: Bliss excess, mean over the matrix (fraction); higher = more synergy
Method in brief: (§1)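 Bliss excess equals the observed combination effect minus the expected value EA + EB − EA·EB, where EA and EB are the effects of each agent alone. Combination Emax is the second-highest inhibition within the matrix. Inhibition was scaled from CellTiter-Glo 2.0 luminescence, with 0 set by vehicle wells and 1 by blank wells, after 72 hours of two-drug dosing of cells plated in 1536-well plates.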

[2] = test system: HSC-39 (Gastric Carcinoma); test: as above
Method in brief: as §1

IST-MES1 (Mesothelioma) = test: as above
Method in brief: as §1

[3] = test system: LK-2 (Squamous Cell Lung Carcinoma); test: as above
Method in brief: as §1

[4] = test system: MFE-280 (Endometrial Carcinoma); test: as above
Method in brief: as §1

[5] = test system: MKN45 (Gastric Carcinoma); test: as above
Method in brief: as §1

NB12 (Neuroblastoma) = test: as above
Method in brief: as §1

[6] = test system: NCI-H2342 (Lung Adenocarcinoma); test: as above
Method in brief: as §1

[7] = test system: PANC-03-27 (Pancreatic Carcinoma); test: as above
Method in brief: as §1

[8] = test system: PSN1 (Pancreatic Carcinoma); test: as above
Method in brief: as §1

[9] = test system: RCM-1 (Colorectal Carcinoma); test: as above
Method in brief: as §1

[10] = test system: REH (B-Lymphoblastic Leukemia); test: as above
Method in brief: as §1

[11] = test system: RKN (Other Solid Carcinomas); test: as above
Method in brief: as §1

SF539 (Glioblastoma) [12] = test: as above
Method in brief: as §1

SK-MEL-2 (Melanoma) = test: as above
Method in brief: as §1

[13] = test system: SK-PN-DW (Other Solid Carcinomas); test: as above
Method in brief: as §1

[14] = test system: OPM-2 (Plasma Cell Myeloma); test: combination Emax (second highest fraction inhibited in the dose matrix, 72 h); higher = more inhibition; extreme values may be limits of the assay
Method in brief: as §1

[15] = test system: OVMIU (Ovarian Carcinoma); test: as above
Method in brief: as §1

SF539 (Glioblastoma) [16] = test: as above
Method in brief: as §1

[17] = test system: VAL (B-Cell Non-Hodgkin's Lymphoma); test: as above
Method in brief: as §1

SMILES	Bliss excess [1]	Bliss excess [2]	Bliss excess (IST-MES1 (Mesothelioma))	Bliss excess [3]	Bliss excess [4]	Bliss excess [5]	Bliss excess (NB12 (Neuroblastoma))	Bliss excess [6]	Bliss excess [7]	Bliss excess [8]	Bliss excess [9]	Bliss excess [10]	Bliss excess [11]	Bliss excess (SF539 (Glioblastoma) [12])	Bliss excess (SK-MEL-2 (Melanoma))	Bliss excess [13]	combination Emax [14]	combination Emax [15]	combination Emax (SF539 (Glioblastoma) [16])	combination Emax [17]
C[C@@H](Oc1cc(-c2cnn(C3CCNCC3)c2)cnc1N)c1c(Cl)ccc(F)c1Cl [Crizotinib] + CC1=C(C(=CC=C1)Cl)NC(=O)C2=CN=C(S2)NC3=CC(=NC(=N3)C)N4CCN(CC4)CCO [Dasatinib] (first compound max 10 µM, 7x7, partner max 2 µM)	0.0464	0.0093	-0.0152	-0.0103	0.0091	-0.048	-0.0563	-0.0108	0.0688	-0.0469	-0.0081	-0.0153	0.0179	0.0661	-0.0362	-0.0426	0.964	0.933	0.886	0.841
C[C@@H](Oc1cc(-c2cnn(C3CCNCC3)c2)cnc1N)c1c(Cl)ccc(F)c1Cl [Crizotinib] + Cn1cnc2c(F)c(Nc3ccc(Br)cc3Cl)c(C(=O)NOCCO)cc21 [Selumetinib] (first compound max 10 µM, 7x7, partner max 10 µM)	-0.0219	-0.0264	-0.0311	0.011	-0.0544	-0.0192	-0.0665	-0.0267	-0.0689	0.0373	-0.0089	-0.0309	0.0181	-0.0212	0.0382	-0.0705	0.985	0.498	0.764	0.758
CS(=O)(=O)CCNCc1ccc(-c2ccc3ncnc(Nc4ccc(OCc5cccc(F)c5)c(Cl)c4)c3c2)o1 [Lapatinib] + Cn1cnc2c(F)c(Nc3ccc(Br)cc3Cl)c(C(=O)NOCCO)cc21 [Selumetinib] (first compound max 10 µM, 7x7, partner max 10 µM)	-0.0284	-0.0089	-0.0348	-0.0131	-0.063	-0.0778	-0.11	-0.0418	0.044	-0.0544	0.0661	-0.0363	-0.0081	0.0066	0.0062	-0.0095	0.533	0.671	0.601	0.597
O=C(c1cc(Cc2n[nH]c(=O)c3ccccc23)ccc1F)N1CCN(C(=O)C2CC2)CC1 [Olaparib] + CC1(C)CCC(CN2CCN(c3ccc(C(=O)NS(=O)(=O)c4ccc(NCC5CCOCC5)c([N+](=O)[O-])c4)c(Oc4cnc5[nH]ccc5c4)c3)CC2)=C(c2ccc(Cl)cc2)C1 [Venetoclax] (first compound max 10 µM, 7x7, partner max 1 µM)	-0.0329	0.0033	-0.0432	0.0039	-0.053	-0.0424	0.0811	-0.0201	-0.0675	-0.0231	-0.0304	0.163	-0.0305	-0.0105	0.0044	0.0049	0.256	0.114	0.358	1
O=C(c1cc(Cc2n[nH]c(=O)c3ccccc23)ccc1F)N1CCN(C(=O)C2CC2)CC1 [Olaparib] + CN(CC[C@H](CSC1=CC=CC=C1)NC2=C(C=C(C=C2)S(=O)(=O)NC(=O)C3=CC=C(C=C3)N4CCC(CC4)[C@H](C5=CC=CC=C5C6=CC=C(C=C6)Cl)O)S(=O)(=O)C(F)(F)F)CCO [AZD4320] (first compound max 10 µM, 7x7, partner max 1 µM)	-0.042	-0.0172	-0.107	0.0748	0.0045	-0.0428	0.0362	-0.018	-0.0341	-0.0224	-0.0431	0.0835	-0.0407	-0.017	-0.0397	0.0012	0.337	0.22	0.463	1
O=C(c1cc(Cc2n[nH]c(=O)c3ccccc23)ccc1F)N1CCN(C(=O)C2CC2)CC1 [Olaparib] + COc1nnc2ccc(N3CCC(c4ccc(OCCN5CCN(C)C(=O)[C@H]5C)cc4)CC3)nn12 [AZD5153] (first compound max 10 µM, 7x7, partner max 1 µM)	-0.0556	-0.072	-0.117	-0.0571	-0.0147	-0.0794	-0.0203	-0.0253	-0.0776	-0.0337	-0.0473	0.0378	0.0101	-0.0258	-0.0421	-0.0518	1	0.603	0.642	0.771
O=C(c1cc(Cc2n[nH]c(=O)c3ccccc23)ccc1F)N1CCN(C(=O)C2CC2)CC1 [Olaparib] + Cc1c2c(nn1C)CSCc1cc(n(C)n1)CSc1cc(c3ccccc3c1)OCCCc1c(C(=O)O)n(C)c3c-2c(Cl)ccc13 [AZD5991] (first compound max 10 µM, 7x7, partner max 1 µM)	-0.0483	0.0101	-0.0434	0.041	-0.0341	-0.0368	-0.0407	-0.0462	-0.0462	-0.0506	-0.0412	0.0318	-0.0443	-0.0003	0.0379	-0.0065	1	0.104	0.46	0.771
N#Cc1cnc(Nc2cc(NC[C@H]3CNCCO3)c(C(F)(F)F)cn2)cn1 [SRA737] + C=CCn1c(=O)c2cnc(Nc3ccc(N4CCN(C)CC4)cc3)nc2n1-c1cccc(C(C)(C)O)n1 [AZD1775] (first compound max 10 µM, partner max 1 µM)	0.043	0.0943	0.0282	0.115	0.0289	-0.0475	0.0199	0.0225	-0.0233	0.0375	0.0488	0.162	0.0124	0.0293	0.098	0.0812	0.93	0.669	0.986	0.797
N#Cc1cnc(Nc2cc(NC[C@H]3CNCCO3)c(C(F)(F)F)cn2)cn1 [SRA737] + CCc1c2c(nc3ccc(O)cc13)-c1cc3c(c(=O)n1C2)COC(=O)[C@]3(O)CC [SN-38] (first compound max 10 µM, 7x7, partner max 0.3 µM)	-0.0228	0.0294	-0.0108	0.154	0.0626	0.0226	-0.114	0.0737	-0.0648	-0.0149	-0.0427	-0.0324	0.0914	-0.0174	0.0931	-0.0406	0.926	0.404	0.971	0.947
N#Cc1cnc(Nc2cc(NC[C@H]3CNCCO3)c(C(F)(F)F)cn2)cn1 [SRA737] + Nc1ccn([C@@H]2O[C@H](CO)[C@@H](O)C2(F)F)c(=O)n1 [Gemcitabine] (first compound max 10 µM, 7x7, partner max 0.3 µM)	0.0436	0.0564	0.0486	0.141	0.0527	-0.0613	0.0372	0.14	-0.0023	0.0721	0.138	0.0113	0.118	0.0222	0.0686	-0.0377	0.911	0.456	0.947	0.809
N#Cc1cnc(Nc2cc(NC[C@H]3CNCCO3)c(C(F)(F)F)cn2)cn1 [SRA737] + O=c1[nH]cc(F)c(=O)[nH]1 [5-Fluorouracil] (first compound max 10 µM, 7x7, partner max 20 µM)	-0.0187	-0.0252	-0.0169	0.0756	-0.0423	-0.0689	-0.0626	-0.0171	0.0112	0.0184	-0.0009	0.0356	-0.0501	0.0471	-0.025	0.0243	0.84	0.413	0.915	0.775
Cc1nc(-c2cn3c(n2)-c2ccc(-c4cnn(C(C)(C)C(N)=O)c4)cc2OCC3)n(C(C)C)n1 [Taselisib] + O=C(Nc1ccc2[nH]nc(-c3ccncc3)c2c1)[C@@H]1CCN(CC(=O)N2CCN(c3ccc(-c4ncccn4)cc3)CC2)C1 [SCH772984] (first compound max 10 µM, 7x7, partner max 5 µM)	0.0096	0.029	-0.0307	0.0371	0.0107	0.0587	-0.0116	0.103	0.0848	0.0797	0.1	0.102	0.0798	0.0465	0.136	-0.0332	1	0.904	0.934	0.6
CC1(C)CCC(CN2CCN(c3ccc(C(=O)NS(=O)(=O)c4ccc(NCC5CCOCC5)c([N+](=O)[O-])c4)c(Oc4cnc5[nH]ccc5c4)c3)CC2)=C(c2ccc(Cl)cc2)C1 [Venetoclax] + CS(=O)(=O)CCNCc1ccc(-c2ccc3ncnc(Nc4ccc(OCc5cccc(F)c5)c(Cl)c4)c3c2)o1 [Lapatinib] (first compound max 1 µM, 7x7, partner max 10 µM)	-0.0442	-0.0257	-0.0357	0.0165	-0.0477	-0.054	-0.0427	-0.0374	-0.0535	-0.0211	-0.0112	0.0755	-0.0482	-0.0166	-0.0207	-0.0284	0.64	0.607	0.309	1
